Laboratory results as given in patent US9234017B2, “Aquaporin-4 peptide compositions and methods of use thereof” (The Regents of the University of California, priority 2012, dated 2016).
Read-outs that look alike come from different tables or passages of the source.

What was measured:
Format in all cases: cell-based, human
[1] = test system: peripheral blood mononuclear cells (PBMC); assay: PBMC proliferation by [3H]thymidine incorporation, primary cultures; conditions: for proliferative responses of NMO patients to individual AQP4 peptides: peptides 10 μg/ml, 6 d, [3H]thymidine, FIG. 1B
[2] = test system: AQP4 p61-80-specific T cells; assay: Epitope mapping: recall proliferation of AQP4 p61-80-reactive T cells to truncated peptides; conditions: NMO patients, peptides 10 μg/ml, irradiated autologous APC, [3H]thymidine after 3 d, FIG. 3A, 3B
[3] = test system: T cells from NMO patients; assay: T cell proliferation by CFSE dilution (cell division index); conditions: for proliferative T cell response to individual AQP4 peptides: NMO patients, CFSE dilution, peptides 10 μg/ml, 10 d, FIG. 1D
[4] = test system: T cells initially stimulated with AQP4 p63-76 or ABC-TP
[5] = test system: CD4+CFSElow proliferating T cells; assay: Intracellular IL-17 and IFN-γ staining of proliferating antigen-specific CD4+ T cells; conditions: for frequencies of IL-17+ single- and IL-17+IFN-γ+ double-positive (Th17) cells: NMO patients in comparison to HC, PMA/Ionomycin 5 h, FIG. 4A, B
Method: (§1) Single-cell suspensions were incubated with human serum to prevent nonspecific antibody binding, then stained with anti-CD3, -CD4, -CD8, -CD25, -MHC Class II, -CD40, -CD80, and -CD86 (eBioscience and BD Bioscience). Intracellular cytokine production by CD4^+ T cells and APC was analyzed by monitoring the expression of IFN-γ, IL-17, IL-6, IL-1β and IL-10 (1:100) (eBioscience). Foxp3 staining was performed according to the manufacturer's protocol (eBioscience). For intracellular cytokine staining, T cells were stimulated with phorbol 12-myristate 13-acetate (PMA, 50 ng/ml) plus ionomycin (500 ng/ml) in the presence of GolgiStop (1 μl/ml) (BD Biosciences). CD14^+ cells were stimulated with LPS (1 μg/ml; Sigma-Aldrich) for 4 or 20 h in the presence of GolgiStop. Cells were analyzed by flow cytometry on a FACS Canto flow cytometer (BD Biosciences).
FIG. 4A-4D. […] PBMC were stained with CFSE and cultured for 10 d with AQP4 peptides (10 μg/ml) or rhAQP4 (5 μg/ml). (Panel A) CD4^+CFSE^low proliferating T cells were analyzed for IL-17 and IFN-γ production by intracellular staining after stimulation with PMA/Ionomycin for 5 h. (Panel B) Frequencies of IL17^+IFN-γ^−, IL17^+IFN-γ^+ and IL17^−IFN-γ^+ were examined among proliferating p61-80-specific CD4^+ T cells (n=8 NMO and n=5 HC), p156-170-specific CD4^+ T cells (n=6 NMO and n=3 HC) and rhAQP4-specific CD4^+ T cells (n=6 NMO and n=5 HC). Frequencies of IL-17- and IFN-γ-single positive T cells were used to calculate Th17/Th1 ratio. (Panel C) PBMC were examined by FACS for expression of Treg markers including CD4, CD127 and CD25. (Panel D) CFSE-labeled PBMC were cultured for 10 d with AQP4 p61-80 (10 μg/ml) or rhAQP4 (5 μg/ml). Proliferating CD4^+ T cells (CDI>2) were examined by FACS for expression of CD25^high, defined as the top half of CD25^+ cells, and Foxp3 (n=8 NMO p61-80, n=6 HC p61-80, n=7 NMO rhAQP4 and n=5 HC rhAQP4). Box-and-whisker plots include the median, distribution and range. **P<0.01 Mann-Whitney U test.

[6] = test system: T cells initially stimulated with rhAQP4; assay: Antigen recall proliferation after initial stimulation with rhAQP4
[7] = test system: proliferating CD4+ T cells; assay: Treg (CD25high Foxp3) frequency among proliferating antigen-specific CD4+ T cells; conditions: NMO patients versus HC, FIG. 4D
Method: as §1
FIG. 4A-4D. […] PBMC were stained with CFSE and cultured for 10 d with AQP4 peptides (10 μg/ml) or rhAQP4 (5 μg/ml). (Panel A) CD4^+CFSE^low proliferating T cells were analyzed for IL-17 and IFN-γ production by intracellular staining after stimulation with PMA/Ionomycin for 5 h. (Panel B) Frequencies of IL17^+IFN-γ^−, IL17^+IFN-γ^+ and IL17^−IFN-γ^+ were examined among proliferating p61-80-specific CD4^+ T cells (n=8 NMO and n=5 HC), p156-170-specific CD4^+ T cells (n=6 NMO and n=3 HC) and rhAQP4-specific CD4^+ T cells (n=6 NMO and n=5 HC). […]

[8] = PBMC from 4 NMO patients, primed 10 d at 10 μg/ml, [3H]thymidine after 3 d, FIG. 3E

tetanus toxoid: Tetanus toxoid obtained from List Biological Laboratories, Inc. [reference compound]
response to tetanus toxoid, HC compared with NMO patients ([1]; lymphocytes from healthy controls): comparable responses

GTEKPLPVDMVL (synthetic poypeptide) [p61-72]
proliferation of AQP4 p61-80-specific T cells to truncated peptides [2]: not

p21-40: synthetic overlapping AQP4 20-mer peptide, amino acids 21-40 of human AQP4 (NIMVAFKGVWTQAFWKAVTA; UniProt P55087 21-40, looked up, fragment)
proliferative T cell response to individual AQP4 peptides [3]: T cell responses were observed | proliferative responses of NMO patients to individual AQP4 peptides [1]: T cell determinants were identified

EKPLPVDMVLISLC (listed as Homo sapiens) [p63-76]
recall proliferation of ABC-TP p204-217-primed T cells [4, 8]: vice versa | proliferation of AQP4 p61-80-specific T cells to truncated peptides [2]: nearly as efficiently

p61-80: peptide of amino acids position 61 to position 80 of human AQP-4 protein sequence (GTEKPLPVDMVLISLCFGLS)
proportion of CD4+ T cells that responded ([3]; NMO patients versus HC, FIG. 1E): higher in NMO patients than HC | proliferative T cell response to individual AQP4 peptides [3]: robust proliferative T cell response | frequencies of IL-17+ single- and IL-17+IFN-γ+ double-positive (Th17) cells [5]: significantly higher frequencies | Th17/Th1 ratio ([5]; NMO patients versus HC): elevated | immunodominance among peptides examined [6]: clearly immunodominant | proliferative responses of NMO patients to individual AQP4 peptides [1]: T cell determinants were identified

FIILPVSMVLISLV [ABC-TP p204-217]
recall proliferation of AQP4 p63-76-primed T cells [4]: proliferated | proliferation of T cells from NMO patients [3]: proliferated significantly

GILYLVTPPSVVGGLGVTMV (synthetic poypeptide) [p131-150]
proliferative responses of NMO patients to individual AQP4 peptides [1]: T cell determinants were identified

DMVLISLCFGLS (synthetic poypeptide) [p69-80]
proliferation of AQP4 p61-80-specific T cells to truncated peptides [2]: less efficiently than p63-80

GTEKPLPVDMVLISLC (synthetic poypeptide) [p61-76]
proliferation of AQP4 p61-80-specific T cells to truncated peptides [2]: proliferated

PVDMVLISLCFGLS (synthetic poypeptide) [p67-80]
proliferation of AQP4 p61-80-specific T cells to truncated peptides [2]: less efficiently than p63-80

GTEKPLPVDMVLIS (synthetic poypeptide) [p61-74]
proliferation of AQP4 p61-80-specific T cells to truncated peptides [2]: not

AGHGLLVELIITFQL (synthetic poypeptide) [p156-170]
recall proliferation of ABC-TP p204-217-primed T cells [4, 8]: not observed | recall proliferation of AQP4 p63-76-primed T cells [4, 8]: not observed | proliferative T cell response to individual AQP4 peptides [3]: T cell responses were observed | frequencies of IL-17+ single- and IL-17+IFN-γ+ double-positive (Th17) cells [5]: No Th17 bias | proliferative responses of NMO patients to individual AQP4 peptides [1]: T cell determinants were identified

rhAQP4: Full length recombinant human AQP4 (1-323) expressed in Pichia pastoris
frequency of Treg among antigen-specific T cells [7]: significantly reduced frequency | frequencies of IL-17+ single- and IL-17+IFN-γ+ double-positive (Th17) cells [5]: not significant

PLPVDMVLISLCFGLS (synthetic poypeptide) [p65-80]
proliferation of AQP4 p61-80-specific T cells to truncated peptides [2]: less efficiently than p63-80

GTEKPLPVDMVLISLCFG (synthetic poypeptide) [p61-78]
proliferation of AQP4 p61-80-specific T cells to truncated peptides [2]: proliferated

RFKEAFSKAAQQTKGSYMEV (synthetic poypeptide) [p261-280]
proliferative T cell response to individual AQP4 peptides [3]: T cell responses were observed | proliferative responses of NMO patients to individual AQP4 peptides [1]: not detected

p11-30: synthetic overlapping AQP4 20-mer peptide, amino acids 11-30 of human AQP4 (GKCGPLCTRENIMVAFKGVW; UniProt P55087 11-30, looked up, fragment)
proliferative T cell response to individual AQP4 peptides [3]: T cell responses were observed | proliferative responses of NMO patients to individual AQP4 peptides [1]: not detected

SMNPARSFGPAVIMGNWENH (synthetic poypeptide) [p211-230]
proliferative responses of NMO patients to individual AQP4 peptides [1]: T cell determinants were identified
